This note sets out measurements from US9839618B2, “Compositions and methods relating to proliferative diseases” (The Penn State Research Foundation, priority 2010, dated 2017).

The structures appear in SMILES notation. Read-outs that look alike come from different tables or passages of the source.

Experiment [1] relates to Breast (MCF-7) cancer cell line. Nature of the experiment: MTS assay viability IC50, MCF-7. It counts as cell-based. To be noted: Homo sapiens, MCF7; Table 5. The procedure:
(§1) Dehydroabietylamine, its N-substituted derivatives and the corresponding dihydroabietylamine and its N-substituted derivatives are tested for their capability to inhibit cell growth of cancer cell lines, including melanoma (UACC 903, 1205Lu), breast (MCF-7), fibrosarcoma (HT-1080), colon (Caco-2), and prostate (PC-3) cancer cell lines. Viability and IC50 of normal human fibroblasts and cell lines from melanoma and other malignancies following treatment with all the agents are measured using the MTS assay (Promega, Madison, Wis.). Human fibroblast FF2441 cells, metastatic melanoma cell lines 1205 Lu and UACC 903 as well as cancer cell lines representing sarcoma (HT-1080), prostate (PC-3, LNCaP), breast (MCF-7) and lung (A-549) are maintained in DMEM (Invitrogen, Carlsbad, Calif.) supplemented with 10% FBS (Hyclone, Logan, Utah) in a 5% CO2 atmosphere, humidified 37° C. incubator. 5×10^3 cells per well in 100 μL of media are plated and grown in a 96-well plate for 48 to 72 h and treated with either DMSO vehicle control or 0.62 to 40 μmol/L for 24, 48 or 72 h. IC50 values for each compound in […] for respective cell lines are measured from three independent experiments using GraphPad Prism version 4.01 (GraphPad Software, La Jolla, Calif.). FIG. 52 is a graph showing IC50 values for leelamine and compounds 4a, 4b and 5a in treated fibroblasts (FF2441) compared to melanoma cells. Selectivity ratio here is defined as ratio of activity against fibroblasts compared to activity against melanoma cells. Leelamine is relatively selective with a ratio of >6 and >4 for UACC903 and 1205Lu melanoma cells. The selectivity ratio of compound 4a is ˜4 and ˜3 for UACC903 and 1205Lu and for compound 4b is ˜4 for both cell lines. The selectivity ratio of compound 5a is ˜4 for UACC903 and >2 for 1205Lu cells.

The test system of experiment [2] is Prostate (LnCap) cancer cell line. Nature of the experiment: MTS assay viability IC50, LnCap. It counts as cell-based. To be noted: Homo sapiens, Table 5. On the procedure:
as §1
A general note: Tetrazolium assays rely on reduction of a dye to a coloured formazan, in cell work by metabolically active cells.

In experiment [3] the test system is UACC 903 metastatic melanoma cells. Nature of the experiment: MTS assay viability IC50, UACC 903. Particulars: for IC50: Homo sapiens, UACC-903. It counts as cell-based, human. The procedure: (§2) The efficacy of leelamine to kill other cancer types is measured and the IC50 for cell lines derived from carcinomas of breast, lung, prostate, connective tissue, pancreas and colon determined. The MTS assay as described in Sharma, A. et al., Clin Cancer Res, 2009, 15:1674-85; and Madhunapantula, S. V. et al., Mol Cancer Ther, 2008, 7:1297-308 is used to establish the IC50 at 24, 48 and 72 hours of leelamine treatment for normal human epidermal melanocytes (FOM103), normal skin fibroblast cells (FF2441), normal skin keratinocytes (HFK) and compared to melanocytic lesion cells from the radial-, vertical- and metastatic melanoma stages. 5×10^3 cells per well in 100 μL of media are plated and grown in a 96-well plate for 48 to 72 hours and treated with either DMSO vehicle control or 0.62 to 40 μmol/L of leelamine for 24, 48 or 72 hours. IC50 values for each compound in μmol/L for respective cell lines are measured from three independent experiments using GraphPad Prism version 4.01 (GraphPad Software, La Jolla, Calif.). Leelamine is found to be not toxic to normal cells and effective to kill melanoma cells as well as non-melanoma cancer cells as shown in Table 1 in FIG. 20. Leelamine is 3- to 4-fold more specific at killing metastatic melanoma than normal cells, supporting cancer therapeutic utility at concentrations<2 μmol/L.
(§3) 5×10^3 cells per well in 100 μL of media are plated and grown in a 96-well plate for 48 to 72 hours and treated with either DMSO vehicle control or 0.62 to 40 μmol/L of leelamine for 24, 48 or 72 hours. IC50 values for each compound in μmol/L for respective cell lines are measured from three independent experiments using GraphPad Prism version 4.01 (GraphPad Software, La Jolla, Calif.).
(§4) The IC50 and effect of liposomal preparations of leelamine on viability of normal human melanocytes, fibroblasts and melanoma cells UACC 903 and 1205 Lu are measured using the MTS assay (Promega, Madison, Wis.). Empty liposomes or liposomes containing abietic acid are used as controls. 5×10^3 cells per well in 100 μL of media are plated and grown in a 96-well plate for 48 or 72 hours for melanoma and normal cell lines, respectively. The cells are then treated with 0.62 to 40 μmol/L of liposome alone, a liposomal preparation of abietic acid, or with Nanolipolee-007 for 24 hours. IC50 values for each liposome in μmol/L for respective cell lines are measured from three independent experiments using GraphPad Prism version 4.01 (GraphPad Software, La Jolla, Calif.). Nanolipolee-007 retains the growth inhibitory activity of leelamine in killing melanoma cells in culture and specifically kills melanoma cells compared to normal cells, FIG. 24.
as §1, with “FIG. 52 is a graph showing IC50 values for leelamine and compounds 4a, 4b and 5a in treated fibroblasts (FF2441) compared to melanoma cells. Selectivity ratio here is defined as ratio of activity against fibroblasts compared to activity against melanoma cells. Leelamine is relatively selective with a ratio of >6 and >4 for UACC903 and 1205Lu melanoma cells. The selectivity ratio of compound 4a is ˜4 and ˜3 for UACC903 and 1205Lu and for compound 4b is ˜4 for both cell lines. The selectivity ratio of compound 5a is ˜4 for UACC903 and >2 for 1205Lu cells.” left out

Experiment [4] deals with Fibrosarcoma (HT-1080) cancer cell line. Description: MTS assay viability IC50, HT-1080. Particulars: Homo sapiens, Table 5, read-out: IC50 Fibro Sarcoma (HT-1080). In kind it is cell-based. The procedure:
as §1

The subject of the next experiment is cancer cell line. Description: MTS assay viability IC50, A-459. In kind it is cell-based. Particulars: A459; Table 5; read-out: IC50 Liver (A-459). The procedure: as §1
Experiment [5] deals with Prostate (PC-3) cancer cell line. Nature of the experiment: MTS assay viability IC50, PC-3. Particulars: Table 5. It counts as cell-based. The procedure:
as §1

Experiment [6] concerns FF2441 normal human fibroblasts. Nature of the experiment: MTS assay viability IC50, normal fibroblasts. It counts as cell-based. The procedure: as §2
5×10^3 cells per well in 100 μL of media are plated and grown in a 96-well plate for 48 to 72 hours and treated with either DMSO vehicle control or 0.62 to 40 μmol/L of leelamine for 24, 48 or 72 hours. IC50 values for each compound in μmol/L for respective cell lines are measured from three independent experiments using GraphPad Prism version 4.01 (GraphPad Software, La Jolla, Calif.). […]
as §1

Experiment [7] relates to 1205 Lu metastatic melanoma cells. Description: MTS assay viability IC50, 1205 Lu. Particulars: for IC50: Homo sapiens, 1205Lu. It counts as cell-based, human. The procedure:
as §2, §3, §4
as §1, with “FIG. 52 is a graph showing IC50 values for leelamine and compounds 4a, 4b and 5a in treated fibroblasts (FF2441) compared to melanoma cells. Selectivity ratio here is defined as ratio of activity against fibroblasts compared to activity against melanoma cells. Leelamine is relatively selective with a ratio of >6 and >4 for UACC903 and 1205Lu melanoma cells. The selectivity ratio of compound 4a is ˜4 and ˜3 for UACC903 and 1205Lu and for compound 4b is ˜4 for both cell lines. The selectivity ratio of compound 5a is ˜4 for UACC903 and >2 for 1205Lu cells.” left out

The test system of experiment [8] is melanoma cell lines (UACC 903, 1205Lu). Description: MTS assay, melanoma cell lines (cell line not given). In kind it is cell-based, human. Particulars: Homo sapiens; Example 8. The procedure:
The mechanistic basis of leelamine's activity to inhibit melanoma cell growth is determined by examining the effect of leelamine on 1) cell viability using the MTS assay; 2) proliferation using a BrdU incorporation assay; 3) apoptosis using an assay for caspase-3/7 activity; and 4) cell cycle analysis. The MTS assay as described in Sharma, A. et al., Clin Cancer Res, 2009, 15:1674-85; and Madhunapantula, S. V. et al., Mol Cancer Ther, 2008, 7:1297-308 is used to assay cell viability. Rates of proliferation and apoptosis are measured by seeding 5×10^3 cells in 96-well plates, followed by treatment with 0.62 to 10 μmol/L of leelamine for 24 hours. Proliferating and apoptotic cells are quantified using a colorimetric cell proliferation ELISA BrdU kit (Roche diagnostics, Indianapolis, Ind.) or Apo-ONE Homogenous caspase-3/7 assay kit (Promega, Madison, Wis.), respectively, as described in Sharma, A. et al., Clin Cancer Res, 2009, 15:1674-85; and Madhunapantula, S. V. et al., Mol Cancer Ther, 2008, 7:1297-308.
as §1

Setting [9] is: Table 6, read-out: IC50 Metastatic melanoma UACC 903.
Setting [10] is: Table 7, read-out: IC50 (UACC903).
The mark [11] stands for this setting: activity against fibroblasts FF2441 compared to melanoma cells.
The mark [12] stands for this setting: Table 6, read-out: IC50 Metastatic melanoma 1205 Lu.

`CNC[C@]1(C)CCC[C@]2(C)C3CCC(C(C)C)=CC3=CCC12` (stereo partly drawn) [Compound 4b, {[(1R,4aR)-1,4a-dimethyl-7-(propan-2-yl)-1,2,3,4,4a,4b,5,6,10,10a-decahydrophenanthren-1-yl]methyl}(methyl)amine]: the IC50 turned out to be 9.04 ± 2.43 µM in [1]; 22.4 ± 3.31 µM in experiment [2]; 2.36 µM in [3] (Example 8, read-out: IC50 UACC 903); 2.36 ± 0.25 µM in experiment [3] (Table 4, read-out: IC50 Metastatic Melanoma Cell line UACC903); 2.36 ± 0.25 µM in [3] (Table 5, read-out: IC50 Melanoma (UACC903)); 2.36 ± 0.25 µM in experiment [3] (setting [9]). Also, the IC50 was 2.36 µM in [3] (setting [10]); 4.54 ± 0.87 µM in experiment [4]; 15.3 ± 1.83 µM in the experiment on cancer cell line; 10.7 ± 0.87 µM in [5]; 9.33 ± 1.27 µM in [6] (Homo sapiens, FF2441, Table 5, read-out: IC50 Fibroblast FF2441); 2.38 µM in [7] (Example 8, read-out: IC50 1205Lu). Besides, the IC50 in experiment [7] (Table 4, read-out: IC50 Metastatic Melanoma Cell line 1205Lu) is 2.38 ± 0.14 µM; in experiment [7] (setting [12]), 2.38 ± 0.14 µM. In addition, the “Selectivity ratio, fibroblasts versus UACC903” value in [3] (setting [11]) is recorded as roughly 4. In experiment [7] (setting [11]), the “Selectivity ratio, fibroblasts versus 1205Lu” value is roughly 4.

With `CNC(=O)[C@]1(C)CCC[C@]2(C)C3CCC(C(C)C)=CC3=CCC21` (stereo partly drawn) [Compound 3b, (1R,4aR)-N,1,4a-trimethyl-7-(propan-2-yl)-1,2,3,4,4a,4b,5,6,10,10a-decahydrophenanthrene-1-carboxamide], the IC50 in [3] (setting [9]) was greater than 100 µM; in experiment [3] (setting [10]), greater than 100 µM; in experiment [6] (Table 6, read-out: IC50 Normal fibroblast FF2441), greater than 100 µM; in [8] it was greater than 100 µM; in experiment [7] (setting [12]) it was greater than 100 µM.

What is called IC50 is the point on the concentration scale where inhibition reaches its midpoint.
